Measurements: patent US9006255B2, “Quinazoline derivatives” (Merck Patent GmbH, priority 2010, dated 2015)

Tests used:
[1] = system: PI3K; test: Cellular testing of PI3K inhibitors: P-S473-PKB Luminex assay in PC3 cells; type: cell-based; conditions: phosphorylation of PKB at Serin 473, 30 min incubation, serum-free
Experimental: Description of the Method for the Cellular Testing of PI3K Inhibitors The measure used for the cellular PI3K activity is the PI3K-dependent phosphorylation of PKB at Serin 473. The cellular assay for determination of the P-S473-PKB level is carried out as a Luminex assay in 96-well format in PC3 cells. […] PC3 cells are sown out with 20,000 cells per well in 100 μl medium (45% RPMI1460/45% Ham's F12/10% FCS) and incubated on the following day for 30 min with a serial dilution of the test substance (7 concentrations) under serum-free conditions. The cells are subsequently lysed using 90 μl of lysis buffer (20 mM Tris/HCl pH 8.0, 150 mM NaCl, 1% NP40, 10% glycerol, 1% phosphatase inhibitor I, 1% phosphatase inhibitor II, 0.1% protease inhibitor cocktail III, 0.01% benzonase) per well, and the lysates are separated off from insoluble cell constituents by means of centrifugation through a 96-well filter plate (0.65 μm). The lysates are incubated overnight at 4° C. with shaking with Luminex beads to which an anti-total PKB antibody is coupled. The detection is carried out on the following day by addition of a P-S473-PKB antibody and a species-specific PE-labelled secondary antibody. The detection of P-S473-PKB is carried out by measurement in a Luminex100 instrument by determination of 100 events per cavity in a measurement time of 60 sec. As pharmacological blank, the signals obtained from cells which have been treated with 3 μM wortmannin are subtracted from all other preparations. The control value used for maximum phosphorylation of PKB at S473 are the signals from cells which have been treated only with the solvent (0.3% DMSO). The values of the preparations treated with test substance are calculated from this as percent of control, and IC50 values are determined by means of RS1.

[2] = molecular target: DNA-PK protein complex (Homo sapiens, UniProt P78527); test: DNA-PK kinase assay (FlashPlate, 33P-ATP); type: biochemical; conditions: biotin-DNA-PK peptide substrate, 5 μM ATP, 90 minutes at room temperature
Experimental: Description of the Method for the Testing of DNA-PK Inhibitors
The kinase assay is carried out in […] microtitre FlashPlates®, coated with streptavidin. 1.5 μg of the DNA-PK protein complex and […] of biotinylated substrate, for example PESQEAFADLWKK biotin-NH2 (“biotin-DNA-PK peptide”) in a total volume of 36.5 μl (34.25 mM Hepes/KOH, 7.85 mM Tris-HCl, 68.5 mM KCl, 5 μM ATP, 6.85 mM MgCl2, 0.5 mM EDTA, 0.14 mM EGTA, 0.69 mM DTT, pH 7.4), are incubated at room temperature for 90 minutes with or without test substance in a well containing 500 ng of DNA from calf thymus, 0.1 μCi of 33P-ATP and 1.8% of DMSO. The reaction is stopped by addition of 50 μl/well of 200 mM EDTA. After incubation for 30 minutes, the liquids are removed at room temperature. Each well is washed three times with 100 μl of 0.9% NaCl solution. Non-specific reaction (blank) is determined using a proprietary kinase inhibitor (10 μM). The radioactivity is measured by means of a Topcount. IC50 values calculated in RS1. Literature: Molecular Cancer Therapeutics 2003, 1257-1264; DNA-dependent protein kinase inhibitors as drug candidates for the treatment of cancer; A. Kashishian, H. Douangpanya, D. Clark, S. T. Schlachter, C. Todd Eary, J. G. Schiro, H. Huang, L. E. Burgess, E. A. Kesicki, and J. Halbrook.

IC50 [1] [nM] | IC50 [2] [nM] | SMILES
100 to 10000 | 1 to 100 | c1ccc2c(c1)CCN2c1ncnc2ccc(-c3cnc4[nH]ccc4c3)cc12 [Compound A1, 4-(2,3-dihydroindol-1-yl)-6-(1H-pyrrolo[2,3-b]pyridin-5-yl)quinazoline]
100 to 10000 | 1 to 100 | c1ccc2c(c1)CN(c1ncnc3ccc(-c4cnc5[nH]ccc5c4)cc13)C2 [Compound A2, 4-(1,3-dihydroisoindol-2-yl)-6-(1H-pyrrolo[2,3-b]pyridin-5-yl)quinazoline]
100 to 10000 | 1 to 100 | c1ccc2c(c1)CCCN2c1ncnc2ccc(-c3cnc4[nH]ccc4c3)cc12 [Compound A3, 4-(3,4-dihydro-2H-quinolin-1-yl)-6-(1H-pyrrolo[2,3-b]pyridin-5-yl)quinazoline]
1 to 100 | 1 to 100 | Cc1nc2cc(-c3ccc4ncnc(N5CCc6ccccc6C5)c4c3)cnc2[nH]1 [Compound A4, 4-(3,4-dihydro-1H-isoquinolin-2-yl)-6-(2-methyl-3H-imidazo[4,5-b]pyridin-6-yl)quinazoline]
100 to 10000 | 1 to 100 | Cc1nc2cc(-c3ccc4ncnc(N5CCCc6ccccc65)c4c3)cnc2[nH]1 [Compound A5, 4-(3,4-dihydro-2H-quinolin-1-yl)-6-(2-methyl-3H-imidazo-[4,5-b]pyridin-6-yl)quinazoline]
100 to 10000 | 1 to 100 | c1ccc2c(c1)CCN(c1ncnc3ccc(-c4cnc5[nH]ccc5c4)nc13)C2 [Compound A6, 4-(3,4-dihydro-1H-isoquinolin-2-yl)-6-(1H-pyrrolo[2,3-b]pyridin-5-yl)pyrido[3,2-d]pyrimidine]
– | 1 to 100 | COc1cc2c(cc1OC)CN(c1ncnc3ccc(-c4cnc5[nH]ccc5c4)nc13)CC2 [Compound A7, 4-(6,7-dimethoxy-3,4-dihydro-1H-isoquinolin-2-yl)-6-(1H-pyrrolo[2,3-b]pyridin-5-yl)pyrido[3,2-d]pyrimidine]
1 to 100 | 1 to 100 | Cc1nc2cc(-c3ccc4ncnc(N5CCc6ccccc6C5)c4n3)cnc2[nH]1 [Compound A8, 4-(3,4-dihydro-1H-isoquinolin-2-yl)-6-(2-methyl-3H-imidazo[4,5-b]pyridin-6-yl)-pyrido[3,2-d]pyrimidine]
1 to 100 | 1 to 100 | COc1cc2c(cc1OC)CN(c1ncnc3ccc(-c4cnc5[nH]c(C)nc5c4)nc13)CC2 [Compound A9, 4-(6,7-dimethoxy-3,4-dihydro-1H-isoquinolin-2-yl)-6-(2-methyl-3H-imidazo[4,5-b]pyridin-6-yl)pyrido[3,2-d]pyrimidine]
1 to 100 | 1 to 100 | CCc1nc2cc(-c3ccc4ncnc(N5CCc6ccccc6C5)c4c3)cnc2[nH]1 [Compound A10, 4-(3,4-dihydro-1H-isoquinolin-2-yl)-6-(2-ethyl-3H-imidazo[4,5-b]pyridin-6-yl)quinazoline]
1 to 100 | 1 to 100 | COc1ccc2c(c1)CN(c1ncnc3ccc(-c4cnc5[nH]c(C)nc5c4)cc13)CC2 [Compound A11, 4-(7-methoxy-3,4-dihydro-1H-isoquinolin-2-yl)-6-(2-methyl-3H-imidazo[4,5-b]pyridin-6-yl)quinazoline]
100 to 10000 | 1 to 100 | Cc1nc2cc(-c3ccc4ncnc(N5CCOc6ccccc65)c4c3)cnc2[nH]1 [Compound A12, 4-[6-(2-methyl-3H-imidazo[4,5-b]pyridin-6-yl)quinazolin-4-yl]-3,4-dihydro-2H-benzo-1,4-oxazine]
100 to 10000 | 1 to 100 | Cc1nc2cc(-c3ccc4ncnc(N5CCC(=O)c6ccccc65)c4c3)cnc2[nH]1 [Compound A13, 1-[6-(2-methyl-3H-imidazo[4,5-b]pyridin-6-yl)quinazolin-4-yl]-2,3-dihydro-1H-quinolin-4-one]
